Test results as given in patent US20210087593A1, “N-[…] ALKALOID COMPOUNDS” (Willow BioSciences Inc., priority 2017, published 2021).

Assays:
EsNMT = experiment: N-alkylation substrate screen using EsNMT (LC-MS); assay type: biochemical, Ephedra sinica; design: key to N-alkylation of substrate alkaloid compounds, Enzyme EsNMT: −=no detectable quantities of product N-alkylated compound; Trace, +, ++, +++=increasing relative levels of product N-alkylated compound; Trace, +, ++, +++=increasing relative levels of product N-alkylated compound; Trace, +, ++, +++=increasing relative levels of product N-alkylated compound; Trace, +, ++, +++=increasing relative levels of product N-alkylated compound; details: for N-alkylation of substrate alkaloid compounds, Enzyme EsNMT: 25 μg protein, 1 mM substrate, 1 mM SAM, 60 mM HEPES pH 8, 16 hours at 37° C., relative level of N-alkylated product by LC-MS; for N-alkylated alkaloid product detected after incubation with EsNMT (SEQ. ID NO: 2): incubated in accordance with Example 1, LC-MS
Experimental: The EsNMT coding sequence was amplified from Ephedra sinica cDNA using gene-specific primers containing restriction sites with Q5 HiFi DNA polymerase (NEB). Restriction digests and ligations (NEB) were carried out to generate a pQE plasmid (Qiagen) for heterologous expression of HIS6-tagged recombinant EsNMT. Protein overexpression was carried out at 18° C. in Escherichia coli SG13009 (Qiagen) grown in lysogeny broth (LB) to which 0.5 mM isopropyl β-D-1-thiogalactopyranoside (IPTG) was added.
(§1) Total soluble protein was extracted from each culture and the recombinant NMTs were purified using TALON cobalt affinity resin (Clontech) followed by desalting and concentration with Amicon Ultra-30 centrifugal filters (EMD Millipore). Protein concentration was determined using the Bradford method, and purity was assessed by SDS-PAGE followed by Coomassie staining.
(§2) Forty-four nitrogenous molecules were screened as potential substrates for EsNMT using a standardized assay (25 μg protein, 1 mM substrate, 1 mM SAM, 60 mM HEPES pH 8, 16 hours at 37° C.). In addition, a representative subset was screened as potential substrates for GfCNMT, GfTNMT and PsRNMT under identical conditions. For each substrate and enzyme combination, negative control assays were carried out using protein heated to 100° C. (boiled) for 20 minutes. Assays were quenched with 9 volumes of methanol, centrifuged to pellet insoluble debris and the supernatants were stored at −20° C. prior to analysis.
(§3) Assay supernatants were analyzed by liquid chromatography-mass spectrometry (LC-MS). LC-MS analysis was performed using a 1200 HPLC coupled with a 6410 triple-quadrupole MS (Agilent). Samples (2 μl) were injected onto a Luna […] Phenyl-Hexyl 100 Å HPLC column and analytes were eluted in a gradient of solvent A (0.1% Formic acid, 5% v/v methanol in water) and solvent B (0.1% Formic acid in methanol) at a flow rate of 300 μl per minute. The gradient began at 0% B, reached 35% B by 12 minutes, then increased to 85% B at 14 min and remained at that level until 18 minutes. Subsequently, the mixture returned to 0% B over a period of 3 minutes before a final 6 minute re-equilibration period. Analytes were applied to the mass analyzer using an electrospray ionization probe operating in positive mode with the following condition: capillary voltage, 4000V; fragmentor voltage, 100V, source temperature, 350° C.; nebulizer pressure, 50 PSI; gas flow 10 L/min. Ions were detected in full scan mode where quadrupoles 1 and 2 were set to RF only, whereas the third quadrupole scanned from 100-500 m/z over 525 milliseconds. Substrate acceptance by the enzymes was determined according to the formation of a peak with a 14-m/z increase in mass, corresponding to methylated substrate and a decrease in the substrate peak area, relative to the appropriate boiled control assay.
(§4) Each of the alkaloid substrates shown in Table 1 were incubated with the following N-alkyltransferases: GfCNMT (SEQ. ID NO: 3), gfTNMT (SEQ. ID NO: 4) and Ps RNMT ([…]) and EsNMT (SEQ. ID NO: 2), as described in Example 1. The presence of N-alkylated alkaloid product was detected as described in Examples 1-20. Legend: ND=Not Determined; −=no detectable quantities of product N-alkylated compound; and Trace, +, ++, +++=increasing relative levels of product N-alkylated compound.

PsRNMT = experiment: N-alkylation substrate screen using PsRNMT (LC-MS); assay type: biochemical, Papaver somniferum; design: key: −=no detectable quantities of product N-alkylated compound; Trace, +, ++, +++=increasing relative levels of product N-alkylated compound; Trace, +, ++, +++=increasing relative levels of product N-alkylated compound; Trace, +, ++, +++=increasing relative levels of product N-alkylated compound; Trace, +, ++, +++=increasing relative levels of product N-alkylated compound; details: 25 μg protein, 1 mM substrate, 1 mM SAM, 60 mM HEPES pH 8, 16 hours at 37° C.; relative level of N-alkylated product by LC-MS
Experimental: (§5) The GfCNMT, GfTNMT and PsRNMT coding sequences were amplified from Glaucium flavum (GfCNMT and GfTNMT) or Papaver somniferum (PsRNMT) cDNA using gene-specific primers containing attB recombination sites with Q5 HiFi DNA polymerase (NEB). Recombination reactions were carried out using BP and LR Clonase II (Thermo Scientific) to generate individual pDONR221 entry plasmids and, subsequently, individual pHGWA plasmids for heterologous expression of polyhistidine (HIS6)-tagged recombinant GfCNMT, GfTNMT and PsRNMT. Protein overexpression was carried out at 18° C. using E. coli ArcticExpress (Agilent) grown in Studier's autoinduction media.
as §1, §2, §3, §4

GfTNMT = experiment: N-alkylation substrate screen using GfTNMT (LC-MS); assay type: biochemical, Glaucium flavum; design: key: −=no detectable quantities of product N-alkylated compound; Trace, +, ++, +++=increasing relative levels of product N-alkylated compound; Trace, +, ++, +++=increasing relative levels of product N-alkylated compound; Trace, +, ++, +++=increasing relative levels of product N-alkylated compound; Trace, +, ++, +++=increasing relative levels of product N-alkylated compound; details: 25 μg protein, 1 mM substrate, 1 mM SAM, 60 mM HEPES pH 8, 16 hours at 37° C.; relative level of N-alkylated product by LC-MS
Experimental: as §5, §1, §2, §3, §4

GfCNMT = experiment: N-alkylation substrate screen using GfCNMT (LC-MS); assay type: biochemical, Glaucium flavum; design: key: −=no detectable quantities of product N-alkylated compound; Trace, +, ++, +++=increasing relative levels of product N-alkylated compound; Trace, +, ++, +++=increasing relative levels of product N-alkylated compound; Trace, +, ++, +++=increasing relative levels of product N-alkylated compound; Trace, +, ++, +++=increasing relative levels of product N-alkylated compound; details: 25 μg protein, 1 mM substrate, 1 mM SAM, 60 mM HEPES pH 8, 16 hours at 37° C.; relative level of N-alkylated product by LC-MS
Experimental: as §5, §1, §2, §3, §4

## CC(C)NC[C@H](O)COc1cccc2ccccc12 (racemic) [Propanolol, propanolol, reference compound]
EsNMT
  N-alkylation of substrate alkaloid compounds, Enzyme EsNMT: +
PsRNMT
  N-alkylation of substrate alkaloid compounds, Enzyme PsRNMT: +++
GfTNMT
  N-alkylation of substrate alkaloid compounds, Enzyme GfTNMT: +++
GfCNMT
  N-alkylation of substrate alkaloid compounds, Enzyme GfCNMT: ++

## CC(N)c1ccccc1 (stereo not drawn) [1-Phenylethaneamine, 1-phenylethan-1-amine]
EsNMT
  N-alkylation of substrate alkaloid compounds, Enzyme EsNMT: −
  N-alkylated alkaloid product detected after incubation with EsNMT (SEQ. ID NO: 2): No N-alkylated alkaloid product compounds were detected

## NCCc1ccccc1 [2-Phenylethaneamine, 2-phenylethan-1-amine]
EsNMT
  N-alkylation of substrate alkaloid compounds, Enzyme EsNMT: +
PsRNMT
  N-alkylation of substrate alkaloid compounds, Enzyme PsRNMT: −
GfTNMT
  N-alkylation of substrate alkaloid compounds, Enzyme GfTNMT: Trace
GfCNMT
  N-alkylation of substrate alkaloid compounds, Enzyme GfCNMT: Trace

## N[C@@H](Cc1ccc(O)c(O)c1)C(=O)O [3,4-dihydroxyphenylalanine]
EsNMT
  N-alkylation of substrate alkaloid compounds, Enzyme EsNMT: −
  N-alkylated alkaloid product detected after incubation with EsNMT (SEQ. ID NO: 2): No N-alkylated alkaloid product compounds were detected

## Nc1ncnc2nc[nH]c12 [Adenine, adenine]
EsNMT
  N-alkylation of substrate alkaloid compounds, Enzyme EsNMT: −
  N-alkylated alkaloid product detected after incubation with EsNMT (SEQ. ID NO: 2): No N-alkylated alkaloid product compounds were detected

## Nc1ccccc1C(=O)O [Anthrallic acid, anthranilic acid]
EsNMT
  N-alkylation of substrate alkaloid compounds, Enzyme EsNMT: −
  N-alkylated alkaloid product detected after incubation with EsNMT (SEQ. ID NO: 2): No N-alkylated alkaloid product compounds were detected

## NCc1ccccc1 [Benzylamine, benzylamine]
EsNMT
  N-alkylation of substrate alkaloid compounds, Enzyme EsNMT: −
  N-alkylated alkaloid product detected after incubation with EsNMT (SEQ. ID NO: 2): No N-alkylated alkaloid product compounds were detected

## C[C@H](N)C(=O)c1ccccc1 [Cathinone, cathinone]
EsNMT
  N-alkylation of substrate alkaloid compounds, Enzyme EsNMT: +

## NCCc1ccc(O)c(O)c1 [Dopamine, dopamine]
EsNMT
  N-alkylation of substrate alkaloid compounds, Enzyme EsNMT: −
  N-alkylated alkaloid product detected after incubation with EsNMT (SEQ. ID NO: 2): No N-alkylated alkaloid product compounds were detected

## CN[C@@H](C)[C@H](O)c1ccccc1 [Ephedrine, ephedrine, reference compound]
EsNMT
  N-alkylation of substrate alkaloid compounds, Enzyme EsNMT: +
PsRNMT
  N-alkylation of substrate alkaloid compounds, Enzyme PsRNMT: −
GfCNMT
  N-alkylation of substrate alkaloid compounds, Enzyme GfCNMT: −

## CC[C@@H]1CN2CCc3c([nH]c4cccc(OC)c34)[C@@H]2C[C@@H]1/C(=C\OC)C(=O)OC [Mitragynine, mitragynine]
EsNMT
  N-alkylation of substrate alkaloid compounds, Enzyme EsNMT: −
  N-alkylated alkaloid product detected after incubation with EsNMT (SEQ. ID NO: 2): No N-alkylated alkaloid product compounds were detected

## CNC(C)C(=O)c1ccccc1 (stereo not drawn) [N-Methyl-cathinone, N-methyl-cathinone]
EsNMT
  N-alkylation of substrate alkaloid compounds, Enzyme EsNMT: +

## Oc1ccc(CC2NCCc3cc(O)c(O)cc32)cc1O (stereo not drawn) [Norlaudanosoline, norlaudanosoline]
EsNMT
  N-alkylation of substrate alkaloid compounds, Enzyme EsNMT: −
  N-alkylated alkaloid product detected after incubation with EsNMT (SEQ. ID NO: 2): No N-alkylated alkaloid product compounds were detected

## C[C@H](N)[C@@H](O)c1ccccc1 [Norpseudoephedrine, norpseudoephedrine]
EsNMT
  N-alkylation of substrate alkaloid compounds, Enzyme EsNMT: +

## NCC(O)c1ccc(O)cc1 (stereo not drawn) [Octopamine, octopamine]
EsNMT
  N-alkylation of substrate alkaloid compounds, Enzyme EsNMT: −
  N-alkylated alkaloid product detected after incubation with EsNMT (SEQ. ID NO: 2): No N-alkylated alkaloid product compounds were detected

## COc1ccc(Cc2nccc3cc(OC)c(OC)cc23)cc1OC [Papaverine, papaverine, reference compound]
EsNMT
  N-alkylation of substrate alkaloid compounds, Enzyme EsNMT: Trace

## CC(C)(N)Cc1ccccc1 [Phentermine, phentermine, reference compound]
EsNMT
  N-alkylation of substrate alkaloid compounds, Enzyme EsNMT: +

## N[C@@H](Cc1ccccc1)C(=O)O [Phenylalanine, phenylalanine]
EsNMT
  N-alkylation of substrate alkaloid compounds, Enzyme EsNMT: −
  N-alkylated alkaloid product detected after incubation with EsNMT (SEQ. ID NO: 2): No N-alkylated alkaloid product compounds were detected

## CN[C@@H](C)[C@@H](O)c1ccccc1 [Pseudoephedrine, pseudoephedrine, reference compound]
EsNMT
  N-alkylation of substrate alkaloid compounds, Enzyme EsNMT: +

## CNCC(O)c1ccc(O)cc1 (stereo not drawn) [Synephrine, synephrine]
EsNMT
  N-alkylation of substrate alkaloid compounds, Enzyme EsNMT: +

## CC1NCCc2cc(O)c(O)cc21 (stereo not drawn) [THQ1, 1-methyl-6,7-dihydroxy-1,2,3,4-tetrahydroisoquinoline]
EsNMT
  N-alkylation of substrate alkaloid compounds, Enzyme EsNMT: +

## NCCS(=O)(=O)O [Taurine, taurine]
EsNMT
  N-alkylation of substrate alkaloid compounds, Enzyme EsNMT: −
  N-alkylated alkaloid product detected after incubation with EsNMT (SEQ. ID NO: 2): No N-alkylated alkaloid product compounds were detected

## Cn1cnc2c1c(=O)[nH]c(=O)n2C [Theobromine, theobromine]
EsNMT
  N-alkylation of substrate alkaloid compounds, Enzyme EsNMT: −
  N-alkylated alkaloid product detected after incubation with EsNMT (SEQ. ID NO: 2): No N-alkylated alkaloid product compounds were detected

## CN1[C@@H]2CC[C@H]1CC(=O)C2 [Tropinone, tropinone]
EsNMT
  N-alkylation of substrate alkaloid compounds, Enzyme EsNMT: −
  N-alkylated alkaloid product detected after incubation with EsNMT (SEQ. ID NO: 2): No N-alkylated alkaloid product compounds were detected

## N[C@@H](Cc1c[nH]c2ccccc12)C(=O)O [Tryptophan, tryptophan]
EsNMT
  N-alkylation of substrate alkaloid compounds, Enzyme EsNMT: −
  N-alkylated alkaloid product detected after incubation with EsNMT (SEQ. ID NO: 2): No N-alkylated alkaloid product compounds were detected

## N[C@@H](Cc1ccc(O)cc1)C(=O)O [Tyrosine, tyrosine]
EsNMT
  N-alkylation of substrate alkaloid compounds, Enzyme EsNMT: −
  N-alkylated alkaloid product detected after incubation with EsNMT (SEQ. ID NO: 2): No N-alkylated alkaloid product compounds were detected

## O=c1[nH]c(=O)c2ncn([C@@H]3O[C@H](CO)[C@@H](O)[C@H]3O)c2[nH]1 [Xanthosine, xanthosine]
EsNMT
  N-alkylation of substrate alkaloid compounds, Enzyme EsNMT: −
  N-alkylated alkaloid product detected after incubation with EsNMT (SEQ. ID NO: 2): No N-alkylated alkaloid product compounds were detected

## CN(C)c1ccc(C=O)cc1 [p-dimethylaminobenzaldehyde]
EsNMT
  N-alkylation of substrate alkaloid compounds, Enzyme EsNMT: −
  N-alkylated alkaloid product detected after incubation with EsNMT (SEQ. ID NO: 2): No N-alkylated alkaloid product compounds were detected

## methylephedrine
EsNMT
  N-alkylation of substrate alkaloid compounds, Enzyme EsNMT: +
